{"source": "paper PMC5218480", "about": "(PLoS ONE, 2017)", "test_system": "MV-4-11 cells", "experiment": "Gene expression microarray analysis (Affymetrix PrimeView) and GSEA", "type": "cell-based, human", "set-up": "RFU PODN (11730768_x_at) / Fold change /veh PODN (11730768_x_at) / RFU LINC00158 (11744669_a_at) / Fold change /veh LINC00158 (11744669_a_at) / RFU DUSP10 (11751237_a_at) / Fold change /veh DUSP10 (11751237_a_at) / RFU ID3 (11757404_x_at) / Fold change /veh ID3 (11757404_x_at) / RFU PLEKHG5 (11737974_s_at) / Fold change /veh PLEKHG5 (11737974_s_at) / RFU LRRC4B (11730491_at) / Fold change /veh LRRC4B (11730491_at) / RFU GIMAP4 (11747438_a_at) / Fold change /veh GIMAP4 (11747438_a_at) / RFU KRT8 (11758183_x_at) / Fold change /veh KRT8 (11758183_x_at) / RFU CNN1 (11734310_a_at) / Fold change /veh CNN1 (11734310_a_at) / RFU VPS37D (11726825_at) / Fold change /veh VPS37D (11726825_at) / RFU C10orf10 (11716522_x_at) / Fold change /veh C10orf10 (11716522_x_at) / RFU KIR2DL2 /// KIR2DL4 /// KIR2DL5A /// KIR2DL5B /// KIR2DS1 /// KIR2DS2 /// KIR2DS3 /// KIR2DS4 /// KIR3DL3 /// KIR3DL3 /// KIR3DS1 (11738374_at) / Fold change /veh KIR2DL2 /// KIR2DL4 /// KIR2DL5A /// KIR2DL5B /// KIR2DS1 /// KIR2DS2 /// KIR2DS3 /// KIR2DS4 /// KIR3DL3 /// KIR3DL3 /// KIR3DS1 (11738374_at) / RFU C1QL1 (11718748_at) / Fold change /veh C1QL1 (11718748_at) / RFU TMPRSS4 (11747572_a_at) / Fold change /veh TMPRSS4 (11747572_a_at) / RFU HAMP (11756126_x_at) / Fold change /veh HAMP (11756126_x_at) / RFU RNFT2 (11725882_a_at) / Fold change /veh RNFT2 (11725882_a_at) / RFU NR4A2 (11747474_a_at) / Fold change /veh NR4A2 (11747474_a_at) / RFU ABCC12 (11746883_a_at) / Fold change /veh ABCC12 (11746883_a_at) / RFU TMEM136 (11760407_x_at) / Fold change /veh TMEM136 (11760407_x_at) / RFU CLDN22 /// WWC2 (11732394_at) / Fold change /veh CLDN22 /// WWC2 (11732394_at) / RFU HLA-DPB1 (11760878_x_at) / Fold change /veh HLA-DPB1 (11760878_x_at) / RFU SPINT1 (11716480_a_at) / Fold change /veh SPINT1 (11716480_a_at) / RFU GAP43 (11754022_s_at) / Fold change /veh GAP43 (11754022_s_at) / RFU A4GNT (11735810_at) / Fold change /veh A4GNT (11735810_at) / RFU PRB3 (11715151_x_at) / Fold change /veh PRB3 (11715151_x_at) / RFU TUBB4B (11761932_at) / Fold change /veh TUBB4B (11761932_at) / RFU CAPN14 (11732068_a_at) / Fold change /veh CAPN14 (11732068_a_at) / RFU TMCC2 (11721928_a_at) / Fold change /veh TMCC2 (11721928_a_at) / RFU IRGQ (11745062_a_at) / Fold change /veh IRGQ (11745062_a_at) / RFU FAM174B (11720279_a_at) / Fold change /veh FAM174B (11720279_a_at) / RFU TMPRSS4 (11748680_a_at) / Fold change /veh TMPRSS4 (11748680_a_at) / RFU FAM212B (11763350_a_at) / Fold change /veh FAM212B (11763350_a_at) / RFU PLEKHG5 (11743358_a_at) / Fold change /veh PLEKHG5 (11743358_a_at) / RFU ZSCAN30 (11745921_a_at) / Fold change /veh ZSCAN30 (11745921_a_at) / RFU CMKLR1 (11741424_a_at) / Fold change /veh CMKLR1 (11741424_a_at) / RFU LOC101060620 /// MAPK8IP1 (11723275_at) / Fold change /veh LOC101060620 /// MAPK8IP1 (11723275_at) / RFU SPTSSB (11747773_x_at) / Fold change /veh SPTSSB (11747773_x_at) / RFU PRSS12 (11739890_at) / Fold change /veh PRSS12 (11739890_at) / RFU BIN1 (11741810_x_at) / Fold change /veh BIN1 (11741810_x_at) / RFU WNT11 (11732464_a_at) / Fold change /veh WNT11 (11732464_a_at) / RFU C10orf10 (11716521_a_at) / Fold change /veh C10orf10 (11716521_a_at) / RFU C5orf56 (11738089_at) / Fold change /veh C5orf56 (11738089_at) / RFU CYB561 (11721691_x_at) / Fold change /veh CYB561 (11721691_x_at) / RFU ANKRD19P (11752326_a_at) / Fold change /veh ANKRD19P (11752326_a_at) / RFU OR2T12 /// OR2T33 /// OR2T8 (11738714_s_at) / Fold change /veh OR2T12 /// OR2T33 /// OR2T8 (11738714_s_at) / RFU VCAN (11748164_a_at) / Fold change /veh VCAN (11748164_a_at) / RFU JSRP1 (11732532_at) / Fold change /veh JSRP1 (11732532_at) / RFU KRTAP10-11 (11738290_x_at) / Fold change /veh KRTAP10-11 (11738290_x_at) / RFU MYO3A (11730013_a_at) / Fold change /veh MYO3A (11730013_a_at) / RFU EBF3 (11725865_a_at) / Fold change /veh EBF3 (11725865_a_at) / RFU CAMK2N1 (11719241_x_at) / Fold change /veh CAMK2N1 (11719241_x_at) / RFU C5orf56 (11738088_a_at) / Fold change /veh C5orf56 (11738088_a_at) / RFU OLFML3 (11715873_a_at) / Fold change /veh OLFML3 (11715873_a_at) / RFU LOC100653217 /// NTM (11731650_a_at) / Fold change /veh LOC100653217 /// NTM (11731650_a_at) / RFU MAPK11 (11762145_a_at) / Fold change /veh MAPK11 (11762145_a_at) / RFU FIZ1 (11724087_x_at) / Fold change /veh FIZ1 (11724087_x_at) / RFU OASL (11726364_x_at) / Fold change /veh OASL (11726364_x_at) / RFU SOX15 (11748057_x_at) / Fold change /veh SOX15 (11748057_x_at) / RFU CD79A (11719716_a_at) / Fold change /veh CD79A (11719716_a_at) / RFU HIST1H1D (11736915_at) / Fold change /veh HIST1H1D (11736915_at) / RFU CASKIN2 (11723855_a_at) / Fold change /veh CASKIN2 (11723855_a_at) / RFU LOC730098 (11760151_x_at) / Fold change /veh LOC730098 (11760151_x_at) / RFU OR4N2 (11742367_at) / Fold change /veh OR4N2 (11742367_at) / RFU PRRT2 (11749266_a_at) / Fold change /veh PRRT2 (11749266_a_at) / RFU SNX32 (11753110_a_at) / Fold change /veh SNX32 (11753110_a_at) / RFU CDHR5 (11726645_a_at) / Fold change /veh CDHR5 (11726645_a_at) / RFU RCAN1 (11760418_a_at) / Fold change /veh RCAN1 (11760418_a_at) / RFU FAM167A (11723789_a_at) / Fold change /veh FAM167A (11723789_a_at) / RFU FAM26E (11764081_at) / Fold change /veh FAM26E (11764081_at) / RFU ISYNA1 (11749810_s_at) / Fold change /veh ISYNA1 (11749810_s_at) / RFU ACY1 (11761880_at) / Fold change /veh ACY1 (11761880_at) / RFU 11764098_at / Fold change /veh 11764098_at / RFU SAMD14 (11745864_x_at) / Fold change /veh SAMD14 (11745864_x_at) / RFU NPB (11741838_a_at) / Fold change /veh NPB (11741838_a_at) / RFU TMPRSS6 (11731388_a_at) / Fold change /veh TMPRSS6 (11731388_a_at) / RFU KRTAP10-2 (11738614_at) / Fold change /veh KRTAP10-2 (11738614_at) / RFU ARHGAP8 /// PRR5-ARHGAP8 (11727945_x_at) / Fold change /veh ARHGAP8 /// PRR5-ARHGAP8 (11727945_x_at) / RFU KRTAP5-7 /// NADSYN1 (11734609_at) / Fold change /veh KRTAP5-7 /// NADSYN1 (11734609_at) / RFU RASL12 (11751679_a_at) / Fold change /veh RASL12 (11751679_a_at) / RFU CDKN2B (11736163_a_at) / Fold change /veh CDKN2B (11736163_a_at) / RFU PRF1 (11729649_at) / Fold change /veh PRF1 (11729649_at) / RFU, ZNF638 /// ZNF638-IT1 / Fold change vs veh, ZNF638 /// ZNF638-IT1 / RFU, PANK3 / Fold change vs veh, PANK3 / RFU, SH3YL1 / Fold change vs veh, SH3YL1 / RFU, ZEB2 / Fold change vs veh, ZEB2 / RFU, NRIP1 / Fold change vs veh, NRIP1 / RFU, PTTG1IP / Fold change vs veh, PTTG1IP / RFU, CAPN2 / Fold change vs veh, CAPN2 / RFU, MED14 / Fold change vs veh, MED14 / RFU, SNORA58 / Fold change vs veh, SNORA58 / RFU, C1orf63 / Fold change vs veh, C1orf63 / RFU, LRRFIP1 / Fold change vs veh, LRRFIP1 / RFU, NDUFAF7 / Fold change vs veh, NDUFAF7 / RFU, SLC12A2 / Fold change vs veh, SLC12A2 / RFU, IBTK / Fold change vs veh, IBTK / RFU, ESF1 / Fold change vs veh, ESF1 / Fold change vs veh, TMEM50B / RFU, TAOK1 / Fold change vs veh, TAOK1 / RFU, ACBD3 / Fold change vs veh, ACBD3 / RFU, TMA16 / Fold change vs veh, TMA16 / RFU, RWDD3 / Fold change vs veh, RWDD3 / RFU, BCAT1 / Fold change vs veh, BCAT1 / RFU, EDEM3 / Fold change vs veh, EDEM3 / RFU, TMEM33 / Fold change vs veh, TMEM33 / RFU, WDR75 / Fold change vs veh, WDR75 / RFU, AHCTF1 / Fold change vs veh, AHCTF1 / RFU, TFRC / Fold change vs veh, TFRC / RFU, ZDHHC17 / Fold change vs veh, ZDHHC17 / RFU, NOM1 / Fold change vs veh, NOM1 / RFU, ARL8B / Fold change vs veh, ARL8B / RFU, ZBTB11 / Fold change vs veh, ZBTB11 / RFU, TAMM41 / Fold change vs veh, TAMM41 / RFU, KIAA1704 /// LOC100996395 / Fold change vs veh, KIAA1704 /// LOC100996395 / RFU, ING1 / Fold change vs veh, ING1 / RFU, TRMT61B / Fold change vs veh, TRMT61B / RFU, FUBP3 / Fold change vs veh, FUBP3 / RFU, TP53 / Fold change vs veh, TP53 / RFU, TNKS2 / Fold change vs veh, TNKS2 / RFU, ZFP14 / Fold change vs veh, ZFP14 / RFU, ACTR2 / Fold change vs veh, ACTR2 / RFU, PPP3R1 / Fold change vs veh, PPP3R1 / RFU, PIK3R1 / Fold change vs veh, PIK3R1 / RFU, HNRNPA1 / Fold change vs veh, HNRNPA1 / RFU, RNF170 / Fold change vs veh, RNF170 / RFU, ZNF28 / Fold change vs veh, ZNF28 / RFU, RNGTT / Fold change vs veh, RNGTT / RFU, OGT / Fold change vs veh, OGT / RFU, BRD1 / Fold change vs veh, BRD1 / RFU, MARS / Fold change vs veh, MARS / RFU, ZNF655 / Fold change vs veh, ZNF655 / RFU, FAHD1 / Fold change vs veh, FAHD1 / RFU, BDP1 / Fold change vs veh, BDP1 / RFU, LRRCC1 / Fold change vs veh, LRRCC1 / RFU, ARID1A / Fold change vs veh, ARID1A / RFU, ZNF146 / Fold change vs veh, ZNF146 / RFU, ZNF330 / Fold change vs veh, ZNF330 / RFU, GPN3 / Fold change vs veh, GPN3 / RFU, C9orf123 / Fold change vs veh, C9orf123 / RFU, N4BP2L2 / Fold change vs veh, N4BP2L2 / RFU, ARFIP1 / Fold change vs veh, ARFIP1 / RFU, FAM179B / Fold change vs veh, FAM179B / RFU, BCL10 / Fold change vs veh, BCL10 / RFU, UHRF1BP1L / Fold change vs veh, UHRF1BP1L / RFU, BET1 / Fold change vs veh, BET1 / RFU, CNOT2 / Fold change vs veh, CNOT2 / RFU, ZNF268 / Fold change vs veh, ZNF268 / Fold change vs veh, ZNF507 / RFU, DGCR2 / Fold change vs veh, DGCR2 / RFU, WDSUB1 / Fold change vs veh, WDSUB1 / Fold change vs veh, HSP90B1 /// MIR3652 / RFU, ADSS / Fold change vs veh, ADSS / RFU, GK / Fold change vs veh, GK / RFU, ZNF148 / Fold change vs veh, ZNF148 / RFU, TAF9 / Fold change vs veh, TAF9 / RFU, SLC1A5 / Fold change vs veh, SLC1A5 / RFU, SLMO2 / Fold change vs veh, SLMO2 / RFU, ABCC4 / Fold change vs veh, ABCC4 / RFU, LOC101060439 /// RAP1B / Fold change vs veh, LOC101060439 /// RAP1B / RFU, RFX7 / Fold change vs veh, RFX7 / RFU, GTPBP10 / Fold change vs veh, GTPBP10 / RFU, CNEP1R1 / Fold change vs veh, CNEP1R1 / RFU, BIVM-ERCC5 /// ERCC5 / Fold change vs veh, BIVM-ERCC5 /// ERCC5 / RFU, ILF3 / Fold change vs veh, ILF3 / RFU 11762660_at / Fold change /veh 11762660_at / RFU VCAN (11757783_s_at) / Fold change /veh VCAN (11757783_s_at) / RFU DDX43 (11728927_at) / Fold change /veh DDX43 (11728927_at) / RFU KRT8 (11758188_x_at) / Fold change /veh KRT8 (11758188_x_at) / RFU NKD1 (11759106_at) / Fold change /veh NKD1 (11759106_at) / RFU SRD5A1 (11742802_a_at) / Fold change /veh SRD5A1 (11742802_a_at) / RFU TPSAB1 /// TPSB2 (11721975_s_at) / Fold change /veh TPSAB1 /// TPSB2 (11721975_s_at) / RFU GSTM3 (11746129_a_at) / Fold change /veh GSTM3 (11746129_a_at) / RFU IL23R (11737362_x_at) / Fold change /veh IL23R (11737362_x_at) / RFU TMEM51 (11727254_a_at) / Fold change /veh TMEM51 (11727254_a_at) / RFU PIWIL2 (11732686_x_at) / Fold change /veh PIWIL2 (11732686_x_at) / RFU ORM1 (11744905_x_at) / Fold change /veh ORM1 (11744905_x_at) / RFU CCDC152 (11743942_at) / Fold change /veh CCDC152 (11743942_at) / RFU ECM1 (11717891_a_at) / Fold change /veh ECM1 (11717891_a_at) / RFU IL23R (11748794_a_at) / Fold change /veh IL23R (11748794_a_at) / RFU TNFAIP8L3 (11732012_x_at) / Fold change /veh TNFAIP8L3 (11732012_x_at) / RFU MBOAT4 (11741988_at) / Fold change /veh MBOAT4 (11741988_at) / RFU 11764193_at / Fold change /veh 11764193_at / RFU TMEM53 (11763286_at) / Fold change /veh TMEM53 (11763286_at) / RFU MAGEB2 (11727129_at) / Fold change /veh MAGEB2 (11727129_at) / RFU TMEM200A (11744735_a_at) / Fold change /veh TMEM200A (11744735_a_at) / RFU CCDC152 (11751479_a_at) / Fold change /veh CCDC152 (11751479_a_at) / RFU FAM211A (11726209_a_at) / Fold change /veh FAM211A (11726209_a_at) / RFU RGS16 (11746705_a_at) / Fold change /veh RGS16 (11746705_a_at) / RFU VCAN (11755009_s_at) / Fold change /veh VCAN (11755009_s_at) / RFU RHOB (11743442_s_at) / Fold change /veh RHOB (11743442_s_at) / RFU RGS16 (11720943_a_at) / Fold change /veh RGS16 (11720943_a_at) / RFU RGS16 (11720944_at) / Fold change /veh RGS16 (11720944_at) / RFU, VPS4B / Fold change vs veh, VPS4B / RFU, CREB1 / Fold change vs veh, CREB1 / RFU, DNAJC13 / Fold change vs veh, DNAJC13 / RFU, GNAQ / Fold change vs veh, GNAQ / RFU, CDK5R1 / Fold change vs veh, CDK5R1 / RFU, ZRANB3 / Fold change vs veh, ZRANB3 / RFU, CUL4A / Fold change vs veh, CUL4A / RFU, CCNY / Fold change vs veh, CCNY / RFU, UFL1 / Fold change vs veh, UFL1 / RFU, COG3 / Fold change vs veh, COG3 / RFU, DIAPH2 / Fold change vs veh, DIAPH2 / RFU, SKA2 / Fold change vs veh, SKA2 / RFU, AFF3 / Fold change vs veh, AFF3 / RFU, LMF1 / Fold change vs veh, LMF1 / RFU, IPO11 / Fold change vs veh, IPO11 / RFU, DFFB / Fold change vs veh, DFFB / RFU, FOXP1 / Fold change vs veh, FOXP1 / RFU, CARD8 / Fold change vs veh, CARD8 / RFU, STRN3 / Fold change vs veh, STRN3 / RFU, ADK / Fold change vs veh, ADK / RFU, RASSF2 / Fold change vs veh, RASSF2 / RFU, WIPF1 / Fold change vs veh, WIPF1 / RFU, LARP1B / Fold change vs veh, LARP1B / RFU, RASA1 / Fold change vs veh, RASA1 / RFU, RB1 / Fold change vs veh, RB1 / RFU, PPFIA1 / Fold change vs veh, PPFIA1 / RFU, MAT2A / Fold change vs veh, MAT2A / RFU, CCT5 / Fold change vs veh, CCT5 / RFU, WDR92 / Fold change vs veh, WDR92 / RFU, CUX1 / Fold change vs veh, CUX1 / RFU, TTC7A / Fold change vs veh, TTC7A / RFU, TMEM135 / Fold change vs veh, TMEM135 / RFU, DEPTOR / Fold change vs veh, DEPTOR / RFU, CPM / Fold change vs veh, CPM / RFU, DNAJB6 / Fold change vs veh, DNAJB6 / RFU, CACNA2D3 / Fold change vs veh, CACNA2D3 / RFU, DTX4 / Fold change vs veh, DTX4 / RFU, TFCP2 / Fold change vs veh, TFCP2 / RFU, GMCL1 /// GMCL1P1 / Fold change vs veh, GMCL1 /// GMCL1P1 / RFU, AEBP2 / Fold change vs veh, AEBP2 / RFU, SNHG1 /// SNORD22 /// SNORD25 /// SNORD26 /// SNORD27 /// SNORD28 /// SNORD29 /// SNORD31 / Fold change vs veh, SNHG1 /// SNORD22 /// SNORD25 /// SNORD26 /// SNORD27 /// SNORD28 /// SNORD29 /// SNORD31 / Fold change (Aza/veh), C12orf56 (ProbeSet 11735607_a_at) / Fold change (ACY-1035/veh), C12orf56 (ProbeSet 11735607_a_at) / Fold change (Aza/veh), FGFR1OP (ProbeSet 11751329_s_at) / Fold change (ACY-1035/veh), FGFR1OP (ProbeSet 11751329_s_at) / Fold change (Aza/veh), VPS36 (ProbeSet 11739960_a_at) / Fold change (ACY-1035/veh), VPS36 (ProbeSet 11739960_a_at) / RFU SYPL1 (11715823_x_at) / Fold change /veh SYPL1 (11715823_x_at) / RFU IGFBP7 (11715501_s_at) / Fold change /veh IGFBP7 (11715501_s_at) / RFU REEP3 (11722064_at) / Fold change /veh REEP3 (11722064_at) / RFU IGLL1 (11728026_x_at) / Fold change /veh IGLL1 (11728026_x_at): dose or concentration left out as unconfirmed", "conditions": "MV-4-11 cells, 48 hours", "data": [{"compound": "Nc1ccc(-c2cccs2)cc1NC(=O)c1ccc2c(c1)cc(C1CC1)n2CCN1CCOCC1", "note": "[ACY-1035]", "values": [{"measurement": "Fold change /veh TMPRSS4 (11747572_a_at)", "result": 1.09}]}]}
